Measurements reported in patent publication US20010006660A1, “LOW-RIGIDITY LIPOSOMAL FORMULATION” (priority 1999, published 2001).

How the values were obtained:
[1] = Phase transition / destabilization temperature by differential scan calorimetry; assay type: physicochemical
Experimental: The formulations of liposomes were assessed for their ability to fuse with bacteria. The liposomes were prepared as described above and contained different lipid mixtures. These lipid mixtures were dipalmitoylphosphatidylcholine (DPPC): dimirystoylphosphatidylglycerol (DMPG), DPPC: soybean 1-α-phosphatidylinositol, sodium salt, (PI), and 1,2-di-o-hexadecyl-sn-glycero-3-phosphocholine (DHPC): DMPG. All lipid mixtures were used at ratios of 10:1. PI is negatively charged with a phase transition temperature (Tc) of 23° C., while DHPC is neutral with a Tc of 42° C. All three formulations have a Tc of about 29.5° C. […] The bacterial strain used was Pseudomonas aeruginosa strain 429.
Different tobramycin-encapsulated liposomal formulations were prepared according to Example 1 and analyzed by differential scan colorimetry. Using differential scan calorimetry, the temperatures of phase transition (TC) were calculated for the tobramycin-liposomal formulations listed in Table 2. All these formulations were then listed in vitro to assess the antibiotic kinetics of liberation from the liposomes. In addition, these formulations were tested in a non-infected mouse model as previously described (Omri et al. 1994, Antimicrob. Agents Chemother. 38:1090-1095) to assess the persistence of the liposomes in the lung.

Xanthomonas maltophilia [2] = test: In vitro bactericidal activity, viable bacterial counts in proteose peptone; assay type: cell-based; conditions: free tobramycin 3,12 μg/ml, liposomes entrapped tobramycin 3,08 μg/ml
Experimental: To evaluate the bactericidal efficacy of the liposonal tobramycin formulation produced according to the present invention (DPPC/DMPG), in vitro tests were performed against different clinical strains: […] To culture tubes containing proteose peptone (29 ml) a minimal number of 10^8 CFU of bacteria in logarithmic phase (1 ml) and of one of the following preparations (100 μl) were added at time zero: free tobramycin, control liposomes or PBS. Experiments were done in triplicate. At times 1, 3, 6, and 16 hours following the addition of antibiotic or controls, 2 ml of samples were collected and serial 10-fold dilutions were made and spread in triplicate on proteose peptone agar plates for gram negative strains and on […] for S. aureus. CFU were counted after 24-hour and 48-hourS incubations at 37° C. under 5% CO2. Counts were expressed in log CFU per ml of culture media.

[3] = test system: Pseudomonas aeruginosa PA 508 (mucoid phenotype); test: Bactericidal activity in rat model of chronic pulmonary infection (agar beads); assay type: in vivo; conditions: Sprague-Dawley rats
Experimental: To evaluate the bactericidal efficacy of a liposomal aminoglycoside formulation produced according to the present invention, male, pathogen-free, Sprague-Dawley rats weighing 175 to 225 g (Charles River) were used. Chronic infection in lungs was established by intratracheal administration of 5×10^5 CFU of Pseudomonas aeruginosa PA 508 (mucoid phenotype) prepared in agar beads. After 3 days, three doses (600 μg) of free or liposome-encapsulated tobramycin were given intratracheally at intervals of 16 h. The lipid mixture were DPPC:DMPG at a molar ratio of 10:1 (formula no 1) and DPPC:DMPC at a molar ration of 15:1 (formula no 2). Sixteen hours after the last treatment, the animals were sacrificed and the entire lungs were removed aseptically, weighed, and homogeneized as described previously for mice. Serial 10-fold dilutions of the homogenates in cold PBS were made and spread in triplicate on proteose peptone agar plates. Identification of P. aeruginosa was confirmed by specific cultures. CFU were counted after 24 hour incubations at 37° C. under 5% CO^2. Counts were expressed in log CFU per pair of lungs. PBS and PBS-liposomes were used as controls. A second experiment to study the bactericidal effect of the liposomal tobramycin preparation, produced according to the present invention, was carried out as for Table 4 with the following modifications: 1) liposomes were prepared with a 15:1 molar ratio of DPPC:DMPG (formula no. 3); and 2) only two doses of 240 μg of free or liposome-encapsulated tobramycin were administered to the rats.

[4] = test system: Pseudomonas aeruginosa (strain 429); test: MIC of clinical strain; assay type: cell-based
Xanthomonas maltophilia [5] = test: MIC of clinical strain; assay type: cell-based; conditions: Stenotrophomonas maltophilia
[6] = test system: Escherichia coli (strain 1061 mn 88); test: MIC of clinical strain; assay type: cell-based
[7] = test system: Burkholderia cepacia (strain ID-28369); test: MIC of clinical strain; assay type: cell-based
[8] = test system: Staphylococcus aureus (strain LSPQ 2499); test: MIC of clinical strain; assay type: cell-based
[9] = two doses of 240 μg intratracheally, '<significant count' = none or only rare cfu (0 to 6) on plates

Row | Compound | phase transition temperature (Tc) [1] | Viable bacterial counts (cfu) (Xanthomonas maltophilia [2]; 0 h) | Viable bacterial counts (cfu) (Xanthomonas maltophilia [2]; 1 h after addition) | Viable bacterial counts (cfu) (Xanthomonas maltophilia [2]; 3 h after addition) | Viable bacterial counts (cfu) (Xanthomonas maltophilia [2]; 6 h after addition) | Viable bacterial counts (cfu) (Xanthomonas maltophilia [2]; 16 h after addition) | log cfu/pair of lungs ([3]; three doses (600 μg) intratracheally at intervals of 16 h, '<significant count' = none or only rare cfu (0 to 4) on plates) | cfu/pair of lungs ([3]; three doses (600 μg) intratracheally at intervals of 16 h, '<significant count' = none or only rare cfu (0 to 4) on plates, counts <30 not statistically significant) | cfu/pair of lungs [3, 9] | log cfu/pair of lungs [3, 9] | MIC [4] | MIC (Xanthomonas maltophilia [5]) | MIC [6] | MIC [7] | MIC [8]
1 | CCCCCCCCCCCCCCCCOC[C@H](COP(=O)([O-])OCC[N+](C)(C)C)OCCCCCCCCCCCCCCCC [DHPC, 1,2-di-o-hexadecyl-sn-glycero-3-phosphocholine] | 42 °C | – | – | – | – | – | – | – | – | – | – | – | – | – | –
2 | NC[C@H]1O[C@H](O[C@H]2[C@H](O)[C@@H](O[C@H]3O[C@H](CO)[C@@H](O)[C@H](N)[C@H]3O)[C@H](N)C[C@@H]2N)[C@H](N)C[C@@H]1O [Free tobramycin, tobramycin] | – | 3,7 × 10^10 cfu | 3,00 × 10^12 cfu | 8,20 × 10^14 cfu | 7,80 × 10^16 cfu | 8,57 × 10^18 cfu | 7.10 log cfu/pair of lungs | 1.25 × 10^7 cfu/pair of lungs | 1.07 × 10^6 cfu/pair of lungs | 6.03 log cfu/pair of lungs | ≥ 60 µg/mL | > 5 µg/mL | ≥ 5 µg/mL | ≥ 27 µg/mL | ≥ 9 µg/mL
3 | soybean 1-α-phosphatidylinositol, sodium salt [PI] | 23 °C | – | – | – | – | – | – | – | – | – | – | – | – | – | –
